From patent US6126909A, “Process and apparatus for the production of BI-212 and a use thereof” (Arch Development Corporation, priority 1999, dated 2000)
Entries after “also recorded” stand apart in the source; their conditions may differ.

Assays:
[1] = Toxicity studies, intraperitoneal graded doses; assay type: in vivo, rabbit
Experimental: (§1) In vivo studies were conducted to determine the distribution of Bi-212 produced using the above-noted process and to compare the Bi-212 distribution to the distribution of Pb-212 ferrous hydroxide in colloidal form. The in vivo studies were conducted using white, female New Zealand rabbits weighing about 4.5 kilograms ([…]) each. Studies were also conducted using rabbits to determine the toxicity levels, e.g., the maximum tolerated dose. Efficacy studies were conducted using 25 gram (gm) female Swiss-Webster mice inoculated with Ehrlich-Lettre Ascites carcinoma cells.
The peritoneal cavities of rabbits were instilled with graded doses of Bi-212. The rabbits were followed until death or for up to three months after their blood counts normalized. The rabbits were necropsied at death or termination of the study and their organs were microscopically examined to determine the effect of the Bi-212 on healthy organs.

V-79 cells = test: In vitro irradiation survival (clonogenic), monolayer; assay type: cell-based, Chinese hamster; conditions: V-79 monolayer
Experimental: (§2) In vitro studies were carried out using three well known cell lines, the cells from which were exposed to radiation from: (1) an X-ray source; (2) P-32 chromic phosphate; and (3) Bi-212 chloride. The three cell lines that were used are V-79, which is a Chinese hamster lung fibroblast, Ehrlich-Lettre Ascites carcinoma (ATCC CCL 77), which is an ascites producing -tumor, and NIH:OVCAR-3 (ATCC HTB 161), which is a human ovarian adenocarcinoma. These well known cell lines are predictive of what happens in vivo. The cells were grown as monolayers and into spheroid formations and subsequently irradiated, as described herein.
(§3) The V-79 cells were maintained under exponential growth conditions in minimal essential medium (MEM) supplemented with 10 percent fetal bovine serum. The Ehrlich-Lettre Ascites carcinoma cells were maintained in 90 percent NCTC 109 supplemented with 10 percent fetal bovine serum. The NIH:OVCAR-3 cells were maintained in RPMI 1640 and 10 percent fetal bovine serum.
(§4) Cells from each of the cell lines were irradiated by subjecting the cells to X-ray radiation, P-32, and Bi-212. The X-ray source that was used is a General Electric 250 kvp Maxitron, 26 […] (mA) (HVL 1.5 mm Cu) operated at a dose rate of 1.11 Greys per minute (Gy/min). The cells, in both monolayer and spheroid form were exposed at room temperature and then immediately plated for survival.
(§5) Cells in both monolayer and spheroid were exposed to P-32 chromic phosphate. The radiation dose to each sample was calculated as: […]
(§6) After exposure, the cells were washed in phosphate-buffered saline (PBS) and immediately plated for survival.
(§7) The cell lines were also irradiated using Bi-212. Bismuth-212 was eluted from a generator as described in the aforementioned patent to Atcher et al., which was a cation-exchange column supporting Ra-224, with 1 ml of 0.15 N HI, and the generator was purged with 2 ml of distilled deionized water. […] The filter was purged with 1 ml of distilled deionized water, and the radioactivity was assayed using a calibrated 3×3-in. […]
(§8) Cells were exposed over a period of four hours. The dose (D) per microCurie was calculated and corrected for decay as follows: [formula] where V=volume in milliliters, and […]
(§9) Following plating, survival measurements were taken for each of the irradiated cell samples. […] The plates were then stained with crystal violet and colonies greater than 50 cells were scored. The surviving fraction was then determined.
(§10) Intrinsic radiosensitivity (Do) was calculated from the survival curves. […] Relative biological effectiveness (RBE) was determined as the ratio of the absorbed dose of X-ray to that of alpha radiation to produce the same degree of biological effect.

[2] = Solubility of Bi-212 at various pH values (0.22 μ filter); assay type: physicochemical
Experimental: The solubility was measured by passing the solution through a 0.22 μ Nalgene® filter and measuring the activity of the resulting solution and the activity of the filter.

NIH:OVCAR-3 cells = test: In vitro irradiation survival (clonogenic), monolayer; assay type: cell-based, human; conditions: OVCAR-3 monolayer
Experimental: as §2, §3, §4, §5, §6, §7, §8, §9, §10

[3] = Distribution in peritoneal cavity (imaging and necropsy); assay type: in vivo, rabbit; conditions: rabbits
Experimental: as §1
Groups of rabbits were instilled with a varying amounts (correlating to varying activities) of Bi-212 that were prepared in accordance with the before-described process, neutralized to pH values of between 5.0 and 7.4, and had added thereto a quantity of normal saline to make a 200 cc sample. To compare the distribution of Bi-212, Pb-212 ferrous hydroxide was prepared in accordance with known methods. Rotmensch et al., Gynecol. Oncol., 35:297-300 (1989). […]
Of the groups of rabbits instilled with the Bi-212 solution, a rabbit was imaged and necropsied at each of one-half hour, one hour and three hours after instillation. The percent injected activity (%IA) in each organ was measured to determine the distribution of the Bi-212(Table 6). […] The percent activity remaining in the peritoneal fluid was measured.

[4] = dose increment reducing survival to 37 percent

[212Bi] [Bi-212, bismuth-212]
Microscopic examination of organs ([1]; 60 mCi, three months after instillation): only mild blunting of intestinal villi
Histology, small and large intestines ([1]; 80 mCi): marked individual cell necrosis of gland epithelium of the small and large intestines
Survival ([1]; 80 mCi): survived about three days
Histology ([1]; 100 mCi): diffuse epithelial necrosis
Survival ([1]; 100 mCi): survived about three days
Mortality ([1]; doses greater than 60 mCi): death within three days
Maximum dose tolerated ([1]; rabbits, intraperitoneal): 60 mCi
D0 (intrinsic radiosensitivity) (V-79 cells; [4]): 0.77 Gy
Relative biological effectiveness (RBE) (V-79 cells; relative to X-ray): 3.02
Maintained in solution ([2]; acidic pH): maintained in solution at an acidic pH value
Activity in solution ([2]; pH 6): 5.55 mCi
Activity on filter ([2]; pH 6): 0.24 mCi
Percent activity in solution ([2]; pH 6): 96%
Percent activity on filter ([2]; pH 6): 4%
Activity in solution ([2]; pH 7): 3.24 mCi
Activity on filter ([2]; pH 7): 0.023 mCi
Percent activity in solution ([2]; pH 7): 94%
Percent activity on filter ([2]; pH 7): 6%
Activity in solution ([2]; pH 8): 1.90 mCi
Activity on filter ([2]; pH 8): 0.50 mCi
Percent activity in solution ([2]; pH 8): 83%
Percent activity on filter ([2]; pH 8): 17%
Activity in solution ([2]; pH 9): 0.65 mCi
Activity on filter ([2]; pH 9): 1.35 mCi
Percent activity in solution ([2]; pH 9): 32%
Percent activity on filter ([2]; pH 9): 68%
Solubility dependence on pH ([2]; radio-impurity-free solution): solubility increasing with a decrease in pH value
D0 (intrinsic radiosensitivity) (NIH:OVCAR-3 cells; [4]): 0.75 Gy
Relative biological effectiveness (RBE) (NIH:OVCAR-3 cells; relative to X-ray): 3.19
Distribution in peritoneal cavity/fluid ([3]; intraperitoneal instillation): even distribution within the peritoneal fluid; also recorded: relatively even
Clumping / localized activity in peritoneal cavity ([3]; imaging up to 3 hours or necropsy): no clumping; i.e., no localized activity in the peritoneal cavity up to 3 hours after instillation
